# Measured values published in US20240376119A1, “SPIRO COMPOUND AND USE THEREOF” (CSPC Zhongqi Pharmaceutical Technology (Shijiazhuang) Co., …, priority 2021, published 2024).
# Tests used:
# SHP2 = SHP2 (Homo sapiens (Human), UniProt Q06124); assay: Assay for the inhibitory effect on the SHP2 enzyme (DiFMUP substrate, fluorescence); type: biochemical; conditions: SHP2 activated with SHP-2 activated peptide; DiFMUP 10 μM; read-out: Enzymatic Effect (IC50 on SHP2)
# Method: 1× Assay buffer was prepared. A compound to be tested was diluted with DMSO solvent to a stock concentration of 10 mM. The compound to be tested was first diluted to an intermediate concentration of 1000 μM and then further diluted in a 3-fold gradient using DMSO. Therefore, the intermediate gradient dilution concentration of the compound to be tested was: 1000 μM, 3-fold dilution, 11 gradients. 100 nL of each concentration of the compound in the 384-well LDV echo plate was transferred to a new 384-well ELISA plate (assay plate) (corning, Cat #4514) by the Echo550 instrument. The final concentration of the compound to be tested was 10 μM, 3-fold dilution, 11 gradients in duplicate after 10 μL of the reaction reagent was added. The final DMSO concentration was 1%. For both negative and positive control wells, 100 nL DMSO would be transferred.
# A mixed liquor of 2× working SHP2 reagent (0.4 nM) and 0.5 μM SHP-2 activated peptide (BPS bioscience #79319-2) was prepared with 1× enzyme buffer. After the above-mixed liquor was incubated at 25° C. for 60 minutes, 5 μL of activated SHP2 kinase solution was transferred with a pipettor to the compound wells and the Max control wells (Corning, #4514) of the plate. Then 5 μL of 1× kinase buffer was transferred to the Min control wells. The plate was centrifuged at 1000 rpm for 30 seconds, sealed, and incubated in a 25° C. constant-temperature incubator for 30 minutes. A substrate solution of DiFMUP (#D6567, Invitrogen™) was prepared with 1× kinase buffer, and its concentration should be 2 times as the final concentration of the assay (DiFMUP final concentration: 10 μM). 5 μL of the prepared substrate solution was transferred with an electric pipettor into each well of the ELISA plate to start the reaction. The plate was centrifuged at 1000 rpm for 30 seconds, sealed, and incubated in a 25° C. constant-temperature incubator for 60 minutes. Read the plate at the excitation/emission wavelength of 358/455 nm after the ELISA plate was placed on the Spark machine.
# The RLU values were collected from Spark and the inhibition rate was calculated with the RLU values. Inhibition rate=(maximum value-sample RLU)/(maximum value-minimum value)*100. “Minimum value” was referred to the RLU of the enzyme-free control, and “maximum value” was referred to the RLU of the DMSO control. The data were fit by using the XLFit Excel module (version 5.4.0.8) to obtain IC50 values, and the results are shown in Table 1.
# [1] = Mouse tolerance assay (once daily for 7 consecutive days); type: in vivo; conditions: mouse, in vivo; for Number of animals (number of deaths/total number): 7 days
# Method: • Assay animals: ICR mice, female, 5 weeks old • Solvent: 2% DMSO+98% (0.5% MC), treated by sufficient vortex and sonicated to obtain a uniform suspension • Assay method: Female ICR mice were divided into 4 groups according to weight balance, with 5 mice in each group. The administration doses were 50 mg/kg and 200 mg/kg respectively. The compound was administrated once daily for 7 consecutive days.
# hERG channel = hERG channel (Homo sapiens (Human), UniProt Q12809); assay: hERG assay, manual whole-cell patch clamp in CHO-K1 cell line stably expressing the hERG channel; type: cell-based
# Method: This assay included the following aspects: • A manual patch clamp technique was used to record the hERG current in the CHO-K1 cell line stably expressing the hERG channel; • The inhibition rate at each concentration was calculated based on the hERG tail current; • Each compound was tested at 5 concentrations to calculate the IC50 value; • Three cells were tested for each concentration; • One positive control drug was set.
# HERG currents were recorded using the whole-cell patch-clamp technique. The cell suspension was added to the cell tank and placed on the upright microscope stage. After the cell adherence, the cells were perfused with extracellular fluid at a flow rate of 1-2 mL/min. The glass microelectrode was drawn in two steps by a micropipette puller, and its resistance value in water was 2-5 MΩ. After establishing the whole-cell recording, the clamp potential was maintained at −80 mV. The hERG tail current was elicited by applying a depolarizing voltage to +60 mV upon the voltage stimulation and then repolarizing to −50 mV. All recordings were made after the current stabilization. Extracellular perfusion administration started from a low concentration, and each concentration lasted for 5-10 minutes until the current was stable, and then proceeded to the next concentration.
# The half inhibitory concentration (ICSO) of the test compound was derived from the best fit of the Logistic equation.
# [2] = Mouse pharmacokinetic assay (intragastric administration, plasma HPLC-MS/MS); type: in vivo; conditions: ICR mice
# Method: ICR mice were intragastrically administered with the compound at 10 mg/kg or 20 mg/kg. At different time points (0.25 h, 0.5 h, 1 h, 2 h, 4 h, 8 h, 24 h) after administration, the mice blood was collected from the orbit. The collected whole blood was anticoagulated with heparin sodium and centrifuged at 3000 g to obtain mouse plasma samples. Methanol was added to precipitate proteins. The drug concentration in the mouse plasma after administration was determined by the HPLC-MS/MS method. A drug concentration-time curve was plotted and the pharmacokinetic parameters were calculated. The pharmacokinetic behavior in mice after the compound administration was described by means of non-compartment model statistical moment parameters.
# [3] = mouse, po, intragastric, 10 mg/kg, plasma
# Sequence of hERG channel (Q12809 whole entry): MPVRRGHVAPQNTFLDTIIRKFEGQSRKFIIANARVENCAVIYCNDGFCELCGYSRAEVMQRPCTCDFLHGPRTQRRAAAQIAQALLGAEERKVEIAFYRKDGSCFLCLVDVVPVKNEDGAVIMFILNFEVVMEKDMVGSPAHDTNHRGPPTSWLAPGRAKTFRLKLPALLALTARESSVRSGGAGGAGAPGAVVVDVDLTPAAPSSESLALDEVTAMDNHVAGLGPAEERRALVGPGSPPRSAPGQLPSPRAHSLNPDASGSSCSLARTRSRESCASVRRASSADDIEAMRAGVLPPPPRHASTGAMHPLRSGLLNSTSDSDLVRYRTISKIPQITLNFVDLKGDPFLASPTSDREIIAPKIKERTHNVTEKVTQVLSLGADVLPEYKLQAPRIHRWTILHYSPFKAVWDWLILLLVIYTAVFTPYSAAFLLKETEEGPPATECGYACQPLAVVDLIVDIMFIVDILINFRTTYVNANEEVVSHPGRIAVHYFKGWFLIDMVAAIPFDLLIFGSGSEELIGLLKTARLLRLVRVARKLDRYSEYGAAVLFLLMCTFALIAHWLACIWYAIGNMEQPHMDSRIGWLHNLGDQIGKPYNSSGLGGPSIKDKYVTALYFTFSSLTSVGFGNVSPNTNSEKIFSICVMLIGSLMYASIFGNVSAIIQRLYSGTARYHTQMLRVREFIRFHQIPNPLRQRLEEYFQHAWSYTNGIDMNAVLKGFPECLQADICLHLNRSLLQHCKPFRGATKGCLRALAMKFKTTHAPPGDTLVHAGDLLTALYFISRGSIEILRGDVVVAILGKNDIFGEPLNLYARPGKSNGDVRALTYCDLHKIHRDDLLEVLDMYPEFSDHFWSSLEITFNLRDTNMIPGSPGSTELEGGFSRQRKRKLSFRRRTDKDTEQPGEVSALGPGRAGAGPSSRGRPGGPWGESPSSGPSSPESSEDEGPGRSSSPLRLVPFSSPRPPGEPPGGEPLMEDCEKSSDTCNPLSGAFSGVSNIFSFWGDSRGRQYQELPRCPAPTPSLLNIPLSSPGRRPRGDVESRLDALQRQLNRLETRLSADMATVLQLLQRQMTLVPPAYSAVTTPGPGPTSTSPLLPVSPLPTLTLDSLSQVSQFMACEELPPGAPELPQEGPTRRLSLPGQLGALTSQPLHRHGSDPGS
# Sequence of SHP2 (Q06124 whole entry): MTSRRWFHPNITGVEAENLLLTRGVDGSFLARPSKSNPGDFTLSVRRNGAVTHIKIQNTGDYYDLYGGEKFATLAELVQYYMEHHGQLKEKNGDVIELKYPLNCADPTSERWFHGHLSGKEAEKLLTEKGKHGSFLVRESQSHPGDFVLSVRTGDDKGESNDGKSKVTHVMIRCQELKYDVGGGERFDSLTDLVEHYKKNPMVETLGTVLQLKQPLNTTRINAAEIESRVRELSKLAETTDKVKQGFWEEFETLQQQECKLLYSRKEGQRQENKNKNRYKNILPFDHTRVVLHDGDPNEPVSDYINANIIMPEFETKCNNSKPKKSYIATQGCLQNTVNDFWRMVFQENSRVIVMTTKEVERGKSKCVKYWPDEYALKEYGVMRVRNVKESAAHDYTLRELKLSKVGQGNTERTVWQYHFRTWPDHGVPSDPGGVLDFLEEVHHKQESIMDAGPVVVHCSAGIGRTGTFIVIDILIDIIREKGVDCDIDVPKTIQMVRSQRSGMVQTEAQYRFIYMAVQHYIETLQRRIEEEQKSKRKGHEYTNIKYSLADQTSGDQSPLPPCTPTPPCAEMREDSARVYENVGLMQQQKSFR
compound,measurement,setting,value
"[2H][C@@]1(N)c2ccccc2OC12CCN(c1nc(N)c(Sc3ccnc(N)c3Cl)nc1C(C)=O)CC2 [Compound 56, (R)-1-(5-amino-6-((2-amino-3-chloropyridine-4-yl)sulfanyl)-3-(3-amino-3-deuterium-spiro[benzofuran-2,4′-piperidine]-1′-yl)pyrazine-2-yl)ethanone]",IC50,SHP2,≤ 0.02 µM
same,MTD at 7 days,"[1]; female, ICR",> 200 mg/kg
same,Number of animals (number of deaths/total number),"[1]; female, ICR, 50 mg/kg",0/5F
same,Number of animals (number of deaths/total number),"[1]; female, ICR, 200 mg/kg",0/5F
same,tolerance in mice compared with positive control compound TW-45,[1],significantly better
same,IC50,"hERG channel; CHO-K1 stable cell line, hERG tail current, 5 concentrations",> 10 µM
same,inhibitory effect on the hERG channel (in words),hERG channel; within the detection concentration range of the assay,no obvious inhibitory effect on the hERG channel
same,exposure and absorption in mice (in words),[2]; intragastric administration,relatively high exposure in mice and both were well absorbed in vivo
same,Cmax,[2]; [3],3570 ng/mL
same,Tmax,[2]; [3],30 min
same,AUC(0-t),"[2]; mouse, po, intragastric, 10 mg/kg, plasma, read-out: AUC0-24 h",18300 ng·h/mL
